Test results taken from the SangsterLogP compilation.

| SMILES | logP |
| --- | --- |
| Cc1cc(C)nc(NC(=O)c2cccc(F)c2)c1 | 3.31 |
| COc1cccc2cc(C(=O)Nc3cc(C)cc(C)n3)oc12 | 4.27 |
| Cc1cc(C)nc(NC(=O)c2cc3ccccc3o2)c1 | 3.54 |
| Cc1cc(C)nc(NC(=O)C(c2ccccc2)c2ccccc2)c1 | 4.77 |
| Cc1cc(C)nc(NC(=O)c2ccc([N+](=O)[O-])o2)c1 | 2.39 |
| Cc1cc(C)nc(NC(=O)Cc2ccc(Br)cc2)c1 | 4.07 |
| Cc1cc(C)nc(NC(=O)c2ccccc2)c1 | 3.09 |
| CC(=O)Oc1ccccc1C(=O)Nc1cc(C)cc(C)n1 | 2.35 |
| Cc1cc(C)nc(NC(=O)c2cccn2C)c1 | 2.42 |
| Cc1cc(C)nc(NC(=O)c2cccc(C#N)c2)c1 | 2.88 |
| Cc1cc(C)nc(NC(=O)c2cccs2)c1 | 2.77 |
| Cc1cc(C)nc(NC(=O)c2cccc(Br)c2)c1 | 4.04 |
| Cc1cc(C)nc(NC(=S)c2ccccc2)c1 | 3.45 |
| Cc1cc(C)nc(NC(=O)c2cccc(Cl)c2)c1 | 3.88 |
| Cc1cc(C)nc(NC(=O)c2ccc(C)o2)c1 | 2.75 |
| Cc1cc(C)nc(NC(=O)c2ccco2)c1 | 2.25 |
| Cc1cc(C)nc(NC(=O)c2ccc(Br)s2)c1 | 3.74 |
| Cc1cc(C)nc(NC(=O)c2cc3ccccc3s2)c1 | 4.08 |
| Cc1cc(C)nc(NC(=O)C(C)c2ccccc2)c1 (configuration not stated) | 3.67 |
| Cc1cc(C)nc(NC(=S)c2ccc(C)o2)c1 | 3.2 |
| Cc1cc(C)nc(NC(=O)c2ccc(Br)o2)c1 | 3.22 |
| Cc1cc(C)nc(NC(=O)c2cccc([N+](=O)[O-])c2)c1 | 3.13 |
